Experimental data taken from patent publication US20240254138A1, “TRICYCLIC PYRIMIDINES AS CYCLIN-DEPENDENT KINASE 7 (CDK7) INHIBITORS” (JANSSEN PHARMACEUTICA NV, priority 2021, published 2024).
Where two headings read alike, the source gives them in different places.

Experiments:
[1] = target: CDK7/cyclinH/MAT1 trimeric complex (Homo sapiens, UniProt P50613); test: In vitro CDK7 assay, potency of irreversible covalent inhibitors (kinact/KI), coupled PK/LDH ADP readout at 340 nm
[2] = tested on: RNA Polymerase II Serine 5 phosphorylation (Rpb1 CTD, downstream substrate of CDK7) in A549 cells; test: Imaging-based cellular RNA PolII Ser5 phosphorylation assay in A549 cells; format: cell-based, human; details: for IC50: Homo sapiens; for CDK7_A549 Wild-type CDK7 (pIC50): A549 cells
Outline: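 IC50 derived by fitting % control (DMSO high, 10 μM reference low) against concentration, with Hill slope. Readout: high-content imaging of phospho-Ser5 Rpb1 CTD antibody staining in fixed, permeabilized A549 cells exposed to compound 3 h after 20 h culture in 1% FBS DMEM.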

[3] = tested on: RNA Polymerase II Serine 5 phosphorylation in A549 cells overexpressing CDK7-mutant (C312S); test: Imaging-based cellular RNA PolII Ser5 phosphorylation assay in A549 cells overexpressing CDK7-mutant (C312S); format: cell-based, human; details: for IC50: Homo sapiens; for CDK7_A549 mutant hCDK7(pIC50): A549 cells overexpressing CDK7-mutant (C312S)
Outline: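 Readout was automated imaging of anti-phospho-Ser5 Rpb1 CTD immunofluorescence, with IC50 fitted to % control versus concentration. Cells were A549 stably overexpressing non-covalently targetable CDK7 C312S alongside wild-type, exposed to compound 3 h at 37 °C. DMSO and 10 μM reference compound served as controls.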

[4] = CDK7 (20 nM enz.) (KI, μM), 20 nM enzyme
[5] = read-out: CDK7 (20 nM enz.) (kinact, s^−1), 20 nM enzyme
[6] = read-out: CDK7 (20 nM enz.) (kinact/KI, M^−1*s^−1), 20 nM enzyme
[7] = A549, A549 cells, wild-type CDK7, RNA PolII Ser5 phosphorylation, averaged over all measurements, read-out: CDK7_A549 Wild-type CDK7 (pIC50) (converted)
[8] = A549, A549 cells overexpressing CDK7-mutant (C312S), RNA PolII Ser5 phosphorylation, averaged over all measurements, read-out: CDK7_A549 mutant hCDK7(pIC50) (converted)
[9] = read-out: CDK7 (kinact/KI, M^−1*s^−1), potency of irreversible covalent inhibitors, 1 mM ATP, room temperature, averaged values over all measurements
[10] = wild-type CDK7, RNA PolII Ser5 phosphorylation, averaged over all measurements
[11] = RNA PolII Ser5 phosphorylation, averaged over all measurements
[12] = read-out: CDK7 (20 nM enz.) (kobs/[I], M^−1*s^−1), 20 nM enzyme

CDK7/cyclinH/MAT1 trimeric complex, sequence (P50613 whole entry): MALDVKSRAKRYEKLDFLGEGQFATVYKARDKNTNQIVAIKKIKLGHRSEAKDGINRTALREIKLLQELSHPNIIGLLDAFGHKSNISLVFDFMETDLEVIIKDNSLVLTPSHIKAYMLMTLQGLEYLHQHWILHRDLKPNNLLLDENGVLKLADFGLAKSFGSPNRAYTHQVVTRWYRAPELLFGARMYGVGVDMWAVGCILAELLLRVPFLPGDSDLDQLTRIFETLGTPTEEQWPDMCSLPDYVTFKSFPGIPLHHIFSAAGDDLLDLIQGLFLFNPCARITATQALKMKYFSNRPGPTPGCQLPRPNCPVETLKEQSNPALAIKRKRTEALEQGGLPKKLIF
CDK7/cyclinH/MAT1 trimeric complex, sequence (P51946 whole entry partner): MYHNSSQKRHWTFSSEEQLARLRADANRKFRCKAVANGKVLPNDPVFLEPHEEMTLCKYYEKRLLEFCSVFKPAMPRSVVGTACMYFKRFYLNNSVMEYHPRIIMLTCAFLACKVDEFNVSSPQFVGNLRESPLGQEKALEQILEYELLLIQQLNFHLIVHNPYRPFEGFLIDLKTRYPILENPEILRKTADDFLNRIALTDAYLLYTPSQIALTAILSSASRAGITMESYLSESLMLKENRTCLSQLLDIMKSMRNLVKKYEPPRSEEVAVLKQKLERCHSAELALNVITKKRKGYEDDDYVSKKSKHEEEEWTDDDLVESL
CDK7/cyclinH/MAT1 trimeric complex, sequence (P51948 whole entry partner): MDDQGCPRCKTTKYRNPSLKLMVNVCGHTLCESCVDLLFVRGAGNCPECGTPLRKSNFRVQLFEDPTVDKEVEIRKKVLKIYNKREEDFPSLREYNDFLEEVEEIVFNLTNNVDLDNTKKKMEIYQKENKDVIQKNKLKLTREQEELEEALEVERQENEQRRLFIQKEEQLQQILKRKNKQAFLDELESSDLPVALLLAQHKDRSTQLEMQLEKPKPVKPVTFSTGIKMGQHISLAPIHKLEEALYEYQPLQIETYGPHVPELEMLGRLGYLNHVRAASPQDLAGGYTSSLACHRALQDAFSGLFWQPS

| SMILES | Ki [1, 4] [µM] | kinact [1, 5] [s⁻¹] | kinact/KI [1, 6] [M⁻¹ s⁻¹] | IC50 [2, 7] [µM] | IC50 [3, 8] [µM] | also measured |
| --- | --- | --- | --- | --- | --- | --- |
| C=CC(=O)N1CC(N2CCC(c3cc4c(cc3CO)OCc3c(N5CCOCC5)ccnc3N4)CC2)C1 [Compound 139] | 0.515 | 6.73e-05 | 131 | 0.661 | > 10 |  |
| C=CC(=O)N1CCC(N2CC(c3cc(F)c4c(c3)Nc3nccc(C5CCOCC5)c3CO4)C2)CC1 [Compound 112] | 0.0653 | 4.53e-05 | 693 | 0.155 | 8.51 |  |
| C=CC(=O)N1CCC(N2CC(c3cc4c(c(C5CC5)n3)OCc3c(N5CCOCC5)ccnc3N4)C2)CC1 [Compound 336] | 0.0564 |  |  | 0.049 | 1.32 | CDK7 (20 nM enz.) (kinact, s^−1) ([1]; 20 nM enzyme): 1.295e-05 s⁻¹; CDK7 (20 nM enz.) (kinact/KI, M^−1*s^−1) ([1]; 20 nM enzyme): 229.663 M⁻¹ s⁻¹ |
| C=CC(=O)Nc1ccc(-c2cc3c(cn2)OCc2c(N4CCOCC4)ccnc2N3)cc1 [Compound 160] | 0.0393 | 6.88e-05 | 1750 | 0.0646 | > 10 |  |
| C=CC(=O)N1CC[C@H](N2CC(c3cc(C)c4c(c3)Nc3nccc(N5CCOCC5)c3CO4)C2)C1 (single isomer, unassigned) [Compound 150] | 0.0526 | 8.76e-05 | 1660 | 0.0468 | 6.03 |  |
| C=CC(=O)N1CC(N2CCN(c3cc4c(c(C)n3)OCc3c(N5CCOCC5)ccnc3N4)CC2)C1 [Compound 237] | 0.0731 | 3.42e-05 | 468 | 0.132 | > 10 |  |
| C=CC(=O)N1CCC(c2ccc3c(c2)OCc2c(N4CCOCC4)ccnc2N3)C1 (stereo not shown) [Compound 55] |  |  |  | > 10 | > 10 | kinact/KI [1, 9]: 2.45 M⁻¹ s⁻¹ |
| C=CC(=O)N1CC(N2CCC(c3cc4c(cc3F)OCc3c(N5CCOCC5)ccnc3N4)CC2)C1 [Compound 28] |  |  |  | 0.257 | > 10 | kinact/KI [1, 9]: 477 M⁻¹ s⁻¹ |
| C=CC(=O)N1CC(N2CCC(c3ccc4c(c3)Nc3nccc(N5CCS(=O)(=O)CC5)c3CO4)CC2)C1 [compound 14] | 0.13 | 7.07e-05 | 545 |  |  | CDK7 (kinact/KI, M^−1*s^−1) ([1]; potency of irreversible covalent inhibitors, 1 mM ATP, room temperature, averaged values over all measurements): 710 M⁻¹ s⁻¹; CDK7_A549 Wild-type CDK7 (pIC50) [2, 10]: 6.4; CDK7_A549 mutant hCDK7(pIC50) [3, 11]: <5 |
| CC#CC(=O)N1CC(N2CCC(c3cc4c(c(C5CC5)n3)OCc3c(C5CCOCC5)ccnc3N4)CC2)C1 [Compound 400] | 0.0914 | 5.02e-05 | 549 | 0.105 | > 10 |  |
| C=CC(=O)N1CC(N2CCC(c3cc(F)c4c(c3)Nc3nccc(N5CCS(=O)(=O)CC5)c3CO4)CC2)C1 [Compound 141] | 0.16 | 8.36e-05 | 523 | 0.178 | > 10 |  |
| C=CC(=O)N1CC(N2CC(c3ccc4c(c3)Nc3nccc(-c5cnn(C)c5)c3CO4)C2)C1 [Compound 176] | 0.0372 | 5.38e-05 | 1440 | 0.186 | > 10 |  |
| C=CC(=O)N1CC(N2CCC(c3cc4c(cc3C#N)OCc3c(N5CCOCC5)ccnc3N4)CC2)C1 [Compound 174] | 0.143 | 5.74e-05 | 401 | 0.324 | > 10 |  |
| C=CC(=O)N1CC[C@H](N2CC(c3cc4c(c(C#N)n3)O[C@@H](C)c3c(N5CCOCC5)ccnc3N4)C2)C1 (single isomer, unassigned) [Compound 508] |  |  | 6.21 | 2.88 | > 10 |  |
| C#Cc1cc2c(cc1C1CCN(C3CN(C(=O)C=C)C3)CC1)Nc1nccc(C3CCOCC3)c1CO2 [Compound 120] | 0.0783 | 8.13e-05 | 1040 | 0.331 | > 10 |  |
| C=CC(=O)N1CC[C@@H](N2CC(c3cc4c(c(C)n3)O[C@H](C)c3c(C5CCOCC5)ccnc3N4)C2)C1 (single isomer, unassigned) [Compound 413] | 0.0374 | 4.94e-05 | 1320 | 0.0759 | > 10 |  |

| SMILES | Ki [1, 4] [µM] | kinact [1, 5] [s⁻¹] | kinact/KI [1, 6] [M⁻¹ s⁻¹] | IC50 [2, 7] [µM] | IC50 [3, 8] [µM] | also measured |
| --- | --- | --- | --- | --- | --- | --- |
| C=CC(=O)N1CCC(N2CC(c3cc4c(c(C5CC5)n3)OCc3c(N5CCOCC5)ccnc3N4)C2)CC1 [Compound 341] | 0.0443 |  |  |  |  | CDK7 (20 nM enz.) (kinact, s^−1) ([1]; 20 nM enzyme): 2.9e-05 s⁻¹; CDK7 (20 nM enz.) (kinact/KI, M^−1*s^−1) ([1]; 20 nM enzyme): 655.075 M⁻¹ s⁻¹; CDK7_A549 Wild-type CDK7 (pIC50) [2, 10]: 7.35; CDK7_A549 mutant hCDK7(pIC50) [3, 11]: 5.64 |
| C=CC(=O)N1CC(N2CCC(c3cc4c(c(C)n3)O[C@@H](C)c3c(C5CCOCC5)ccnc3N4)CC2)C1 (single isomer, unassigned) [Compound 247] | 1.57 | 5.48e-05 | 34.8 | 0.776 | > 3.98 |  |
| C=CC(=O)N1CC(N2CCC(c3ccc4c(c3)Nc3nccc(N5C[C@H]6CC[C@@H](C5)O6)c3CO4)CC2)C1 [Compound 11] |  |  |  | 0.0871 | > 10 | kinact/KI [1, 9]: 688 M⁻¹ s⁻¹ |
| C=CC(=O)N1CC(N2[C@@H]3CC[C@H]2C[C@@H](c2ccc4c(c2)Nc2nccc(N5CCOCC5)c2CO4)C3)C1 [Compound 49] |  |  |  | 0.0537 | ~10 | kinact/KI [1, 12]: 1150 M⁻¹ s⁻¹; kinact/KI [1, 9]: 990 M⁻¹ s⁻¹ |
| C=CC(=O)N1CCC(N2CC(c3cc4c(c(C(F)(F)F)n3)OCc3c(N5CCOCC5)ccnc3N4)C2)CC1 [Compound 453] | 0.0717 |  |  |  |  | CDK7 (20 nM enz.) (kinact, s^−1) ([1]; 20 nM enzyme): 3.153e-05 s⁻¹; CDK7 (20 nM enz.) (kinact/KI, M^−1*s^−1) ([1]; 20 nM enzyme): 439.69 M⁻¹ s⁻¹; CDK7_A549 Wild-type CDK7 (pIC50) [2, 10]: 7.13; CDK7_A549 mutant hCDK7(pIC50) [3, 11]: 5.54 |
| C=CC(=O)N1CC(N2CC(c3cc(C)c4c(c3)Nc3nccc(N5CCOCC5)c3CO4)C2)C1 [Compound 215] |  |  |  | 0.0646 | > 10 | kinact/KI [1, 12]: 753 M⁻¹ s⁻¹ |
| C=CC(=O)N1CC(N2CC[C@H](c3cc(C)c4c(c3)Nc3nccc(C5CCOCC5)c3CO4)N(C)CC2)C1 (single isomer, unassigned) [Compound 257] | 0.0574 | 7.95e-05 | 1380 | 0.0447 | 7.24 |  |
| C=CC(=O)N1CC(N2CC(c3cc4c(cn3)O[C@H](C)c3c(-c5cnn(C)c5)ccnc3N4)C2)C1 (single isomer, unassigned) [Compound 295] | 0.0688 | 5.48e-05 | 796 | 0.178 | ~8.32 |  |
| C=CC(=O)N1CCC(N2CC(c3cc4c(c(C)n3)OCc3c(N5CCOCC5)ccnc3N4)C2)CC1 [Compound 165] | 0.0638 |  |  |  |  | kinact ([1]; read-out: CDK7 (20 nM enz.) (kinact, s^−1)): 5.16e-05 s⁻¹; kinact/KI ([1]; read-out: CDK7 (20 nM enz.) (kinact/KI, M^−1*s^−1)): 808 M⁻¹ s⁻¹; IC50 ([2]; A549, read-out: CDK7_A549 Wild-type CDK7 (pIC50) (converted)): 0.0575 µM; IC50 ([3]; A549, read-out: CDK7_A549 mutant hCDK7(pIC50) (converted)): 6.03 µM |
| C=CC(=O)N1CC(N2CCCC(c3ccc4c(c3)Nc3nccc(N5CCOCC5)c3CO4)C2)C1 (stereo not shown) [Compound 40] |  |  |  | 1.12 | > 10 | Ki ([1]; CDK7 (KI(μM)), […], 1 mM ATP, room temperature, averaged values over all measurements): 0.209 µM; kinact ([1]; read-out: CDK7 (kinact, s^−1), kinact = maximal rate of inactivation, 1 mM ATP, room temperature, averaged values over all measurements): 6.41e-05 s⁻¹; kinact/KI [1, 9]: 306 M⁻¹ s⁻¹ |
| C=CC(=O)N1CC(N2CCC(c3ccc4c(c3)Nc3nccc(C5CCOCC5)c3[C@H](C)O4)CC2)C1 (single isomer, unassigned) [Compound 104] | 0.431 | 4.85e-05 | 112 | 1.17 | > 10 |  |
| C=CC(=O)N1CC[C@H](N2CC(c3cc4c(c(C5CC5)n3)O[C@@H](C)c3c(N5CCOCC5)ccnc3N4)C2)C1 (single isomer, unassigned) [Compound 466] | 0.0307 | 5.02e-05 | 1630 | 0.123 | > 10 |  |
| CC#CC(=O)N1CCC(N2CC(c3cc4c(c(C5CC5)n3)O[C@H](C)c3c(N5CCOCC5)ccnc3N4)C2)CC1 (single isomer, unassigned) [Compound 376] | 0.0467 | 9.41e-05 | 2020 | 0.0355 | 5.01 |  |
| C=CC(=O)N1CC(N2CC(c3cc4c(c(CCC)n3)OCc3c(N5CCOCC5)ccnc3N4)C2)C1 [Compound 350] | 0.025 | 4.4e-05 | 1760 | 0.0813 | 10 |  |
| CC#CC(=O)N1CC[C@H](N2CC(c3cc4c(c(C5CC5)n3)O[C@H](C)c3c(N5CCOCC5)ccnc3N4)C2)C1 (single isomer, unassigned) [Compound 471] | 3.64 | 3.28e-05 | 9.02 | 7.08 | > 10 |  |
